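Exposure lasted 48 hours, with cells grown in 96-well plates and compounds tested at five concentrations. The concentration for 50% growth inhibition is given as GI50. TGI denotes the concentration required for complete inhibition of growth.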
How the values were obtained:
Test in all cases: DTP human tumour cell line panel, 48 h
CCRF-CEM leukemia = test system: CCRF-CEM leukemia
DU-145 prostate = test system: DU-145 prostate
MCF7 breast = test system: MCF7 breast
NCI-H23 lung = test system: NCI-H23 lung
PC-3 prostate = test system: PC-3 prostate
SF-268 CNS = test system: SF-268 CNS
SK-MEL-28 melanoma = test system: SK-MEL-28 melanoma
SW-620 colon = test system: SW-620 colon
SN12C renal = test system: SN12C renal
SR leukemia = test system: SR leukemia

Row | SMILES | GI50 (CCRF-CEM leukemia) [µM] | TGI (CCRF-CEM leukemia) [µM] | GI50 (DU-145 prostate) [µM] | TGI (DU-145 prostate) [µM] | GI50 (MCF7 breast) [µM] | TGI (MCF7 breast) [µM] | GI50 (NCI-H23 lung) [µM] | TGI (NCI-H23 lung) [µM] | GI50 (PC-3 prostate) [µM] | TGI (PC-3 prostate) [µM] | GI50 (SF-268 CNS) [µM] | TGI (SF-268 CNS) [µM] | GI50 (SK-MEL-28 melanoma) [µM] | TGI (SK-MEL-28 melanoma) [µM] | GI50 (SW-620 colon) [µM] | TGI (SW-620 colon) [µM] | TGI (SN12C renal) [µM] | TGI (SR leukemia) [µM] | GI50 (SN12C renal) [µM] | GI50 (SR leukemia) [µM]
1 | CCc1ccc(C2=C/C(=C/c3ccc(Cl)cc3)C(=O)N2CCc2ccc(S(N)(=O)=O)cc2)cc1 | 3.44 | 32.8 | 3.77 | 15.4 | 2.22 | 7.99 | 2.45 | 7.46 | 1.9 | 5.36 | 4.63 | 25.9 | 4.28 | 15.8 | 3 | 11.8 |  |  |  | 
2 | CCN1C(C)=NC2C(=O)c3ccccc3C(=O)C21 (stereo unspecified) |  | > 100 |  |  |  |  |  | > 100 |  |  |  | > 100 |  | > 100 |  | > 100 | > 100 | > 100 |  | 
3 | COc1ccc2cc(C(=O)c3ccccc3C(=O)O)ccc2c1 |  | > 100 |  |  |  |  |  | > 100 |  |  |  | > 100 |  | > 100 |  | > 100 | > 100 | > 100 |  | 
4 | Oc1c(Br)cc(Br)cc1CN(Cc1cc(Br)cc(Br)c1O)C1CCCCC1 |  |  |  | > 100 |  | 65 |  | 70.4 |  | 50.5 |  | 71.9 |  | > 100 |  | > 100 | > 100 | > 100 |  | 
5 | CC1(C)CC23C(=O)N(c4ccccc4)C(=Nc4ccccc4)NC2=CC(C#N)=C(C#N)C3O1 (stereo unspecified) |  | > 100 |  |  |  |  |  | > 100 |  |  |  | > 100 |  | > 100 |  | > 100 | > 100 |  |  | 
6 | C=C1C(=O)O[C@@H]2[C@H]1CC[C@H](C)[C@]1(O)CCC(=O)[C@@]21C |  | > 10 |  |  |  | > 10 |  | > 10 |  | > 10 |  | > 10 |  | > 10 |  | > 10 | > 10 | > 10 |  | 
7 | O=C1c2ccccc2C(=O)N1/N=C\c1ccc(Br)cc1 | > 100 | > 100 |  |  |  |  | > 100 | > 100 |  |  | > 100 | > 100 | > 100 | > 100 | > 100 | > 100 | > 100 | > 100 | > 100 | > 100
8 | CC1=CC(=O)C(C)(C2=NC(C)(C)CO2)c2ccccc21 (stereo unspecified) |  | > 100 |  |  |  |  |  | > 100 |  |  |  | > 100 |  | > 100 |  | > 100 | > 100 | > 100 |  | 
9 | CCCC(OCC)(OCC)OCC |  | > 100 |  |  |  |  |  | > 100 |  |  |  | > 100 |  | > 100 |  |  | > 100 | > 100 |  | 
10 | CC(=O)CC(=O)N(CCN(C(=O)CC(C)=O)c1ccccc1)c1ccccc1 |  | > 100 |  |  |  |  |  | > 100 |  |  |  | > 100 |  | > 100 |  | > 100 | > 100 |  |  | 
11 | COc1cccc(/C=C(/C(=O)O)c2cc(OC)c(OC)c(OC)c2)c1 |  | > 100 |  |  |  |  |  |  |  |  |  | > 100 |  | > 100 |  | > 100 | > 100 |  |  | 
12 | CC1(C)CCC(=O)c2c(O)ccc(O)c21 |  |  |  |  |  |  |  | > 100 |  |  |  | > 100 |  | > 100 |  | > 100 | > 100 |  |  | 
13 | CSc1nc(NC2OCC(OC(C)=O)C(OC(C)=O)C2OC(C)=O)c(N=CC=Nc2c(NC3OCC(OC(C)=O)C(OC(C)=O)C3OC(C)=O)nc(SC)n(C)c2=O)c(=O)n1C (stereo unspecified) |  |  |  |  |  |  |  | > 100 |  |  |  | > 100 |  | > 100 |  | > 100 | > 100 | > 100 |  | 
14 | COc1cc2[nH]c(C(=O)c3cc(OC)c(OC)c(OC)c3)c(N)c2cc1C#CCO | 0.309 | > 100 |  |  | 0.0886 | > 100 | 0.508 | > 100 | 0.277 | > 100 | 0.957 | 73.4 | 0.896 | > 100 | 0.294 | > 100 | 98.3 | 19.8 | 1.4 | 0.284
15 | COc1ccc2[nH]c3c4c(c5cc(C(C)(C)C)ccc5c3c2c1)C(=O)N(c1ccccc1)C4=O |  |  |  |  |  |  |  | > 100 |  |  |  | > 100 |  | > 100 |  | > 100 |  |  |  | 
16 | Cc1cc(C)c(C(=O)O)c(N)c1O |  | > 100 |  |  |  |  |  | > 100 |  |  |  | > 100 |  | > 100 |  | > 100 | > 100 | > 100 |  | 
17 | COc1cc(C(=O)C/C(CCC(=O)Nc2ccccc2[N+](=O)[O-])=N\NC(=O)C(N)=O)ccc1O |  | > 100 |  |  |  |  |  | > 100 |  |  |  | > 100 |  | > 100 |  | > 100 |  | > 100 |  | 
18 | CC1(C)SC2C(C(=O)O)N=C(Cc3ccccc3)N2C1C(=O)O (stereo unspecified) |  |  |  | > 100 |  | > 100 |  | > 100 |  | > 100 |  | 98.1 |  | > 100 |  | > 100 | > 100 | > 100 |  | 
19 | CN1CCC23c4c5ccc(O)c4OC2C(=NN=C2CCC4(O)C6Cc7ccc(O)c8c7C4(CCN6C)C2O8)CCC3(O)C1C5 (stereo unspecified) |  | > 100 |  |  |  |  |  | > 100 |  |  |  | > 100 |  | > 100 |  | > 100 | > 100 |  |  | 
20 | C[C@H](c1ccc(Cl)cc1N)N1C(=O)c2cc(I)ccc2N(CCCN2CCN(C)CC2)C(=O)[C@@H]1c1ccc(Cl)cc1 | 1.63 | 3.47 | 1.79 | 3.31 | 1.15 | 2.41 | 2.18 | 5.86 |  |  | 1.7 | 3.2 | 1.69 | 3.08 | 1.72 | 3.14 | 3.03 | 2.6 | 1.59 | 1.01
21 | CS(=O)(=O)c1ccc(N/N=C/c2c(-c3ccc(S(C)(=O)=O)cc3)[nH]c3ccc(F)cc23)cc1 | 1.2 | > 50 | 2.75 | > 50 | 1.59 | > 50 | 2.84 | > 50 | 2.18 | > 50 | 3.4 | > 50 | 1.59 | > 50 | 4.57 | > 50 | > 50 |  | 2.97 | 
22 | OCCN1CCN(CCO)Cc2ccccc2OCCOc2ccccc2C1 |  | > 100 |  |  |  |  |  | > 100 |  |  |  | > 100 |  | > 100 |  | > 100 | > 100 | > 100 |  | 

— PubChem BioAssay (NCI)
